33 compounds from ChEMBL document CHEMBL3217691, “Discovery and optimization of efficacious neutral 4-amino-6-biphenyl-7,8-dihydropyrimido[5,4-f][1,4]oxazepin-5-one diacylglycerol acyl transferase-1 (DGAT1) inhibitors” (Medchemcomm, 2013) can be followed below.

Series [1] is described as follows: Oral bioavailability in Han Wistar rat at 2.3 to […]. The series is classed as ADME, organism-based. To be noted: in vivo.
Another series can be described thus: in vivo. The conditions noted are these: Han Wistar, rat, iv.
Another series in a line: physchem. To be noted: buffer, pH 7.4.
Series [2] in a line: in vitro. The conditions noted are these: human, Caco-2.
Series [3] in a line: Oral bioavailability in dog at 0.5 mg/kg. The series is classed as ADME, organism-based, Canis lupus familiaris. The conditions noted are these: in vivo.
Series [4] can be described thus: Oral bioavailability in mouse at 2 mg/kg. The conditions noted are these: in vivo. The series is classed as ADME, organism-based.
Series [5] can be described thus: Oral bioavailability in rat at 2 mg/kg. The series is classed as ADME, organism-based. To be noted: in vivo.
Series [6] can be described thus: Half life in rat at 2 mg/kg, po. The series is classed as ADME, organism-based. The arrangement: dose 2 mg/kg, route oral. The conditions noted are these: in vivo.
Series [7] is described as follows: Half life in mouse at 2 mg/kg, po. The series is classed as ADME, organism-based. The conditions noted are these: in vivo. Details: dose 2 mg/kg, route oral.
Series [8] can be described thus: Half life in dog at 0.5 mg/kg, iv. The series is classed as ADME, organism-based, Canis lupus familiaris. The arrangement: dose 0.5 mg/kg, route intravenous. The conditions noted are these: in vivo.
A short description of series [9]: Half life in rat at 1 mg/kg, iv. The series is classed as ADME, organism-based. To be noted: in vivo. Details: dose 1 mg/kg, route intravenous.
Series [10] in a line: Half life in mouse at 2 mg/kg, iv. Details: dose 2 mg/kg, route intravenous. To be noted: in vivo. The series is classed as ADME, organism-based.
A further series deals with Canis familiaris. Nature of the series: Volume of distribution at steady state in dog plasma at 0.5 mg/kg, iv and po. The series is classed as ADME, organism-based, Canis lupus familiaris. Details: dose 0.5 mg/kg, route oral. To be noted: in vivo.
The nature of series [11]: Volume of distribution at steady state in rat plasma at 1 mg/kg, iv and 2 mg/kg, po. The conditions noted are these: read-out: Vdss. The series is classed as ADME, organism-based.
The next series has as its system Mus musculus. The series is described as follows: Volume of distribution at steady state in mouse plasma at 2 mg/kg, iv and po. The series is classed as ADME, organism-based. The arrangement: dose 2 mg/kg, route oral. To be noted: in vivo.
A short description of series [12]: Clearance in rat plasma at 1 mg/kg, iv and 2 mg/kg, po. The series is classed as ADME, organism-based.
A short description of series [13]: in vitro. The conditions noted are these: rat, hepatocytes.

The structures appear in SMILES notation.

Consider `Nc1ncnc2c1C(=O)N(c1ccc(-c3ccccc3Cl)c(F)c1)CCO2`, for which the bioavailability in series [1] (at 2.3 to […]) came to 14%. In addition, in the series “in vivo”, the clearance amounted to 18 mL/min/kg. The compound further had a logD in “physchem” of 3. Moreover, the Papp A→B in the series “in vitro [2]” is over 10 ×10⁻⁶ cm/s.

In “in vitro [2]”, `Nc1ncnc2c1C(=O)N(c1ccc(-c3ccc(CO)cc3Cl)cc1)CCO2` came in with a Papp A→B of 16.8 ×10⁻⁶ cm/s.

As for `Nc1ncnc2c1C(=O)N(c1ccc(-c3ncccc3Cl)cc1)CCO2`, the bioavailability in series [1] (at 2.3 to […]) was 68%. In “physchem”, this compound returned a logD of 1.5. This compound also showed a Papp A→B in the series “in vitro [2]” of over 10 ×10⁻⁶ cm/s.

`Nc1ncnc2c1C(=O)N(c1ccc(-c3ccccc3F)cc1)CCO2`: the bioavailability was 76% in series [3], over 100% in series [4], 93% in series [5] and 93% in [1] (at 2.3 to […]). Besides, the half-life in [6] is 3.3 h; in series [7] it was 3.1 h; in series [8], 1.2 h; in series [9] it was 6.7 h; in series [10], 3.5 h. In addition, the Vdss with Canis familiaris was 2.4 L/kg; in the series on Mus musculus, 0.6 L/kg. In series [11], the Vd is 1.9 L/kg. For the same compound, the clearance in series [12] stood at 7.3 mL/min/kg; in “in vivo” it was 7 mL/min/kg. This compound also gave a hepatocyte CLint in the series “in vitro [13]” of under 2 µL/min/1e6 cells. For the same compound, the Papp A→B in the series “in vitro [2]” was over 10 ×10⁻⁶ cm/s.

On to `CS(=O)(=O)NCc1ccc(-c2ccc(N3CCOc4ncnc(N)c4C3=O)cc2)c(Cl)c1`, for which, in series [1] (at 2.3 to […]), the bioavailability worked out at 21%. The same compound gave a logD in “physchem” of 1.8. Besides, in the series “in vitro [2]”, the Papp A→B came to 11.3 ×10⁻⁶ cm/s.

On to `NC(=O)Cc1ccc(-c2ccc(N3CCOc4ncnc(N)c4C3=O)cc2)c(Cl)c1`, for which the hepatocyte CLint in the series “in vitro [13]” was determined as 35 µL/min/1e6 cells. In the series “physchem”, this compound gave a logD of 1.3.

`Nc1ncnc2c1C(=O)N(c1ccc(-c3cc(Cl)ccc3Cl)cc1)CCO2`: in series [1] (at 2.3 to […]), the bioavailability was 110%. For the same compound, the clearance in “in vivo” was found to be 12 mL/min/kg. For the same compound, the hepatocyte CLint in “in vitro [13]” was determined as 9.5 µL/min/1e6 cells. The compound also gave a logD in the series “physchem” of 3.7. The Papp A→B in “in vitro [2]” was 16.2 ×10⁻⁶ cm/s.

As for `Nc1ncnc2c1C(=O)N(c1ccc(-c3ccc(Cl)cc3Cl)cc1)CCO2`, the bioavailability in [1] worked out at 87%. The compound also showed a logD in “physchem” of over 3.9.

As for `Nc1ncnc2c1C(=O)N(c1ccc(-c3ccccc3)cc1)CCO2`, the logD in the series “physchem” stood at 2.4. Further, the Papp A→B in “in vitro [2]” is over 10 ×10⁻⁶ cm/s.

Take `CN(Cc1ccc(-c2ccc(N3CCOc4ncnc(N)c4C3=O)cc2)c(Cl)c1)S(C)(=O)=O`: the bioavailability in series [1] (at 2.3 to […]) was determined as 28%. In “in vivo”, this compound returned a clearance of 5 mL/min/kg. The compound also yielded a hepatocyte CLint in the series “in vitro [13]” of 5.9 µL/min/1e6 cells.

Consider `N#Cc1cccc(Cl)c1-c1ccc(N2CCOc3ncnc(N)c3C2=O)cc1`, for which the logD in “physchem” was found to be 2.1. This compound also came in with a Papp A→B in the series “in vitro [2]” of over 10 ×10⁻⁶ cm/s.

Regarding `CN(Cc1ccc(-c2ccc(N3CCOc4ncnc(N)c4C3=O)cc2)c(Cl)c1)C(=O)CCCN`, the hepatocyte CLint in “in vitro [13]” is under 2 µL/min/1e6 cells. The compound also showed a logD in the series “physchem” of -1. Also, the Papp A→B in the series “in vitro [2]” was 0.2 ×10⁻⁶ cm/s.

`Nc1ncnc2c1C(=O)N(c1ccc(-c3ccc(Cn4cccnc4=O)cc3Cl)cc1)CCO2`: in the series “in vitro [13]”, the hepatocyte CLint was determined as 18.4 µL/min/1e6 cells.

As for `Cc1ccccc1-c1ccc(N2CCOc3ncnc(N)c3C2=O)cc1`, the logD in “physchem” amounted to 2.7. This compound also came in with a Papp A→B in “in vitro [2]” of over 10 ×10⁻⁶ cm/s.

On to `CS(=O)(=O)Cc1ccc(-c2ccc(N3CCOc4ncnc(N)c4C3=O)cc2)c(Cl)c1`, for which the bioavailability in series [1] (at 2.3 to […]) was found to be 61%. In the series “in vivo”, this compound registered a clearance of 5 mL/min/kg. In addition, the hepatocyte CLint in “in vitro [13]” was under 2.8 µL/min/1e6 cells.

In “in vitro [13]”, `Nc1ncnc2c1C(=O)N(c1ccc(-c3ccc(CN4CC[C@H](O)C4=O)cc3Cl)cc1)CCO2` displayed a hepatocyte CLint of under 2 µL/min/1e6 cells. In the series “physchem”, this compound registered a logD of 1.1. This compound returned a Papp A→B in the series “in vitro [2]” of 6.4 ×10⁻⁶ cm/s.

Take `Cc1cccc(Cl)c1-c1ccc(N2CCOc3ncnc(N)c3C2=O)cc1`: the log distribution coefficient (logD) in the series “physchem” stood at 3.4. The compound also showed a Papp A→B in “in vitro [2]” of over 10 ×10⁻⁶ cm/s.

`CN(Cc1ccc(-c2ccc(N3CCOc4ncnc(N)c4C3=O)cc2)c(Cl)c1)C(=O)CCN` showed a hepatocyte CLint in the series “in vitro [13]” of under 2 µL/min/1e6 cells. Further, the logD in the series “physchem” is -0.5. Also, the Papp A→B in “in vitro [2]” came out at 0.3 ×10⁻⁶ cm/s.

`Nc1ncnc2c1C(=O)N(c1ccc(-c3ccc(CC(=O)N4CCNC(=O)C4)cc3Cl)cc1)CCO2`: in series [1] (at 2.3 to […]), the bioavailability came out at 3%. The same compound returned a logD in “physchem” of 0.9.

Take `Nc1ncnc2c1C(=O)N(c1ccc(-c3ccccc3Cl)cc1)CCO2`: in series [1] (at 2.3 to […]), the bioavailability is 65%. The compound also displayed a clearance in “in vivo” of 21 mL/min/kg. Further, the hepatocyte CLint in “in vitro [13]” was 11.1 µL/min/1e6 cells. Also, in “physchem”, the pH-dependent lipophilicity (logD) turned out to be 2.9. Also, the Papp A→B in “in vitro [2]” turned out to be 32.5 ×10⁻⁶ cm/s.

`Nc1ncnc2c1C(=O)N(c1ccc(-c3ccc(CC(=O)N4CC(O)C4)cc3Cl)cc1)CCO2` came in with a hepatocyte CLint in “in vitro [13]” of under 3.1 µL/min/1e6 cells. The logD in the series “physchem” is 1.1.

With `CN(Cc1ccc(-c2ccc(N3CCOc4ncnc(N)c4C3=O)cc2)c(Cl)c1)C(=O)CN`, the hepatocyte CLint in “in vitro [13]” worked out at 4.9 µL/min/1e6 cells. Besides, the logD in the series “physchem” was 0.1. The Papp A→B in the series “in vitro [2]” came to 0.2 ×10⁻⁶ cm/s.

As to `CC(=O)N(C)Cc1ccc(-c2ccc(N3CCOc4ncnc(N)c4C3=O)cc2)c(Cl)c1`, in “in vitro [13]”, the hepatocyte CLint turned out to be 11 µL/min/1e6 cells. Further, in “physchem”, the logD is 1.9. For the same compound, in “in vitro [2]”, the Papp A→B was 19.7 ×10⁻⁶ cm/s.

The compound `N#Cc1ccc(-c2ccc(N3CCOc4ncnc(N)c4C3=O)cc2)c(Cl)c1` displayed a hepatocyte CLint in the series “in vitro [13]” of 4.8 µL/min/1e6 cells. The logD in the series “physchem” amounted to 2.4. This compound had a Papp A→B in the series “in vitro [2]” of 48.2 ×10⁻⁶ cm/s.

With `Nc1ncnc2c1C(=O)N(c1ccc(-c3c(F)cccc3F)c(F)c1)CCO2`, the logD in “physchem” stood at 2.9. In “in vitro [2]”, the Papp A→B was over 10 ×10⁻⁶ cm/s.

For the compound `Nc1ncnc2c1C(=O)N(c1ccc(-c3cccc(Cl)c3Cl)cc1)CCO2`, in series [1] (at 2.3 to […]), the bioavailability was determined as 150%. In the series “in vivo”, this compound came in with a clearance of 24 mL/min/kg. In “in vitro [13]”, this compound came in with a hepatocyte CLint of 9.3 µL/min/1e6 cells. In “physchem”, the logD was 3.8.

The compound `Nc1ncnc2c1C(=O)N(c1ccc(-c3ccc(CC(=O)O)cc3Cl)cc1)CCO2` showed a hepatocyte CLint in “in vitro [13]” of 14 µL/min/1e6 cells. Further, the logD in “physchem” is -0.4.

Turning to `Cc1ccc(-c2ccc(N3CCOc4ncnc(N)c4C3=O)cc2)c(Cl)c1`, in [1] (at 2.3 to […]), the bioavailability came out at 14%. Moreover, the logD in the series “physchem” was determined as 3.5. Also, the Papp A→B in “in vitro [2]” is 16.6 ×10⁻⁶ cm/s.

On to `Nc1ncnc2c1C(=O)N(c1ccc(-c3c(F)cccc3F)cc1)CCO2`, for which the logD in “physchem” is 2.5. In the series “in vitro [2]”, this compound registered a Papp A→B of over 10 ×10⁻⁶ cm/s.

For `CC(=O)NCc1ccc(-c2ccc(N3CCOc4ncnc(N)c4C3=O)cc2)c(Cl)c1`, the bioavailability in series [1] (at 2.3 to […]) is 100%. Moreover, in “physchem”, the logD was 1.8. The compound further had a Papp A→B in the series “in vitro [2]” of 14.5 ×10⁻⁶ cm/s.

Turning to `Nc1ncnc2c1C(=O)N(c1ccc(-c3ccc(C(F)F)cc3Cl)cc1)CCO2`, in series [1] (at 2.3 to […]), the bioavailability came to 150%. This compound also came in with a logD in “physchem” of 3.2.

As to `Nc1ncnc2c1C(=O)N(c1ccc(-c3ccc(CC(=O)N4CC[C@@H](O)C4)cc3Cl)cc1)CCO2`, the bioavailability in series [1] (at 2.3 to […]) worked out at 15%. The compound also had a logD in “physchem” of 1.1. In addition, the Papp A→B in the series “in vitro [2]” came to 1.1 ×10⁻⁶ cm/s.

On to `N#Cc1cccc(-c2ccc(N3CCOc4ncnc(N)c4C3=O)cc2)c1Cl`, for which, in “in vitro [13]”, the hepatocyte CLint turned out to be 4.6 µL/min/1e6 cells. In “physchem”, this compound gave a logD of 2.5. The compound also returned a Papp A→B in the series “in vitro [2]” of 54.8 ×10⁻⁶ cm/s.

In general, logD refers to the decadic logarithm of the distribution of all forms, ionised or not, between an organic phase and buffer at a given pH. A high value points to higher lipophilicity. The term Papp A→B denotes how fast a substance crosses the layer from the apical side. One may read the half-life as the time needed for the level to fall by half in the phase considered. A lower half-life goes with rapid decline. What is called hepatocyte CLint is the capacity of the preparation to metabolise the compound, expressed as a volume cleared per time.
